# Experimental data taken from article PMC13371181, “A paracrine-to-autocrine shunt of GREM1 fuels colorectal cancer metastasis via ACVR1C” (Molecular Cancer, 2026).
# “Also recorded” adds a separate entry of the source.
# Assays:
# [1] = test system: SW480 cells; assay: Scratch assay, SW480; assay type: cell-based, human; conditions: SW480, scratch assay 48 h; n = 3 independent experiments
# Method: (§1) To investigate the effect of secreted GREM1 on CRC cells, an in vitro GREM1 secretion system was established using HEK293 cells. Stably GREM1-expressing cells (pcDNA3.1-GREM1) and empty-vector transfected cells (pcDNA3.1) were cultured in DMEM/F12 medium with 10% FBS until 40% confluence. After complete removal of the normal culture medium, HEK293-GREM1 and HEK293-Vec cells were continuously cultured in DMEM/F12 medium without FBS for 5 days before medium collection. GREM1 or Vector conditioned medium (GREM1-CM/Vec-CM) was then centrifuged at 1000 rpm for 30 min and the supernatant was collected for further study.
# (§2) Cells were seeded into 6-well plates after centrifugation and digestion with 0.05% trypsin. When the cell density reached 90%, three vertical lines were scratched in each well with a 10 µL pipette tip and the floating cells were gently washed away with 1×PBS. Complete medium was added, and images of the scratch area were taken at 0 h. Three different fields of view were selected for each well. After photography, the medium was replaced with serum-free medium. Wound healing was documented at the same location after 24–48 h of incubation.
# [2] = test system: HCT116 cells; assay: Subcutaneous transplantation of GREM1-CM-pretreated HCT116 cells in nude mice; assay type: in vivo, human cells in nude mice; conditions: SB505124 10 mg/kg i.p. every other day
# Method: For cecum-to-liver metastasis model, 1 × 10^6 MC38-luc cells were resuspended in 50 µL of PBS and injected into the cecum of GD mice or control mice (Grem1-CreER^T2/Rosa-LSL-DTA mice) (n = 6 mice in each group); 5 × 10^6 HCT116-luc cells transduced with lentivirus carrying a pLV or pLV-GREM1 were injected into the cecum of NOG mice (n = 5 mice in each group). SB505124 was administered via intraperitoneal injection at a dose of 10 mg/kg once every other day. The metastases were examined every 5 days post injection using an IVIS Lumina Imaging System. Mice were euthanized between 2 and 6 weeks after injection. […] Mice were euthanized 4 weeks after injection. The tumor tissues were collected for further evaluation.
# Figure S8. SB505124 inhibits GREM1-CM-induced EMT and metastasis of CRC in vivo. […] D, RT–qPCR analysis of epithelial marker CDH1 and mesenchymal markers CTNNB1, SNAI1, ZEB1 in subcutaneous tumor tissues from the indicated treatment groups. n = 3 independent experiments. E-G, Representative IF images (E) and quantification (F, G) of E-CAD (green), SNAIL (red), and DAPI (blue) staining in tumors from the indicated groups. […] H, I, Representative IVIS images (H) and quantification (I) of NOG mice that were injected with HCT116-luc cells in the cecum wall and treated with either SB505124 or vehicle via abdominal injection. Liver metastases were imaged and quantified using the IVIS Lumina Imaging System (n = 5 mice per group). For B–D, F, G and I, data are presented as mean ± s.e.m. P values were calculated using one-way ANOVA with Bonferroni multiple-comparison test (B–D, F, and G) or two-tailed Student’s t-test (I).
# [3] = test system: HCT116 cells; assay: Scratch assay, HCT116; assay type: cell-based, human; conditions: HCT116, scratch assay 24 h; n = 3 independent experiments
# Method: as §1, §2
# [4] = test system: SNAI1 promoter; assay: ChIP–qPCR, SMAD2/3/4 binding to SNAI1 promoter; assay type: cell-based, human; conditions: SW480 cells, SB505124 10 µM, 24 h, n = 3 independent experiments
# Method: SW480 cells were starved in DMEM with 1% FCS overnight before treatment with vehicle, 10 µM SB505124 for 24 h. Cells were fixed in 1% paraformaldehyde for 10 min at RT for DNA-protein cross-linking, followed by quenching with glycine. Cross-linking chromatin was prepared using the SimpleChIP® Enzymatic Chromatin IP Kit (CST, 9002) according to the manufacturer’s instructions. For immunoprecipitation, 10 µg chromatin was incubated with 10 µL anti-histone H3 rabbit IgG (CST, 14269, positive control), 2 µL normal Rabbit IgG (CST, 2729) or 5 µL anti-SMAD2/3 rabbit IgG (CST, 8685) at 4 °C overnight. 2% chromatin prior to immunoprecipitation was used as input. Chromatin-protein-antibody complex was captured by protein G magnetic beads, and chromatin was released by reversal of cross-links and purified using the SimpleChIP® Enzymatic Chromatin IP Kit (CST, 9002) according to the manufacturer’s instructions. DNA was quantified by qPCR with primers targeting predicted SMAD2/3/4 binding regions on GREM1 or SNAI1 promoters. DNA levels were normalized to the input, and the fold-change of enrichment was calculated over the control. ChIP–qPCR primers are listed in Supplementary Table 2.
# [5] = test system: SW480 cells; assay: GREM1 expression in SW480 cells after rhGREM1, RT–qPCR; assay type: cell-based, human; conditions: n = 3 biological replicates
# Method: Total RNA was extracted using Trizol reagent (Invitrogen, 15596026). According to the instructions, cDNA was generated using the PrimeScript RT reagent Kit with gDNA Eraser (Accurate Biology, AG11706). The SYBR Green Premix Pro Taq HS qPCR Kit (Accurate Biology, AG11701) was then used to quantify mRNA expression according to the manufacturer’s instructions. All results were calculated using the 2^−ΔΔCt method. Primers used in the study are listed in Supplementary Table 1.
compound,measurement,setting,value
Cc1cccc(-c2[nH]c(C(C)(C)C)nc2-c2ccc3c(c2)OCO3)n1 [SB505124],"GREM1-CM-induced migration, effect of inhibitor",[1],abolished; also recorded: suppressed
same,E-CAD and SNAIL expression in subcutaneous tumors,"[2]; IF, n = 5 mice per group",restored E-CAD expression and suppressed SNAIL expression
same,subcutaneous tumor progression and EMT,"[2]; nude mice, GREM1-CM-pretreated HCT116, n = 6 mice per group",suppressed tumor progression and EMT
same,"GREM1-CM-induced migration, effect of inhibitor",[3],abolished; also recorded: suppressed
same,SMAD2/3/4 binding to SNAI1 promoter −787 site,[4],significantly decreased this binding
same,"rhGREM1-induced GREM1 expression, effect of inhibitor",[5],completely reversed the effect of rhGREM1
